This passage reports IC50 and Ki results from ChEMBL document CHEMBL1909046, “DrugMatrix in vitro pharmacology data”.

The target in data set [1] is Mitogen-activated protein kinase 3 (Homo sapiens, UniProt P27361). In words: DRUGMATRIX: Protein Serine/Threonine Kinase, ERK1 enzyme inhibition (substrate: Myelin Basic Protein). Details: species or system Escherichia coli. The following applies: Not Active = under 50% inhibition at 10 µM.
Data set [2] in a line: DRUGMATRIX: Potassium Channel [KATP] radioligand binding (ligand: [3H] Glyburide). Type of data set: cell membranes, Membrane. As to conditions: hit-t15; Not Active = under 50% inhibition at 10 µM.
For data set [3], the target named is D(3) dopamine receptor (Homo sapiens, UniProt P35462). Put plainly: DRUGMATRIX: Dopamine D3 radioligand binding (ligand: [3H] Spiperone). Type of data set: cell membranes, CHO, Membrane.
Data set [4] in a line: DRUGMATRIX: Tumor Necrosis Factor (TNF), Non-Selective radioligand binding (ligand: [125I] TNF-alpha). As to conditions: u-937; Not Active = under 50% inhibition at 10 µM. It counts as cell membranes, Membrane.
In data set [5] the target is Insulin receptor (Rattus norvegicus, UniProt P15127). Type of data set: cell membranes, Wistar, Liver, Membrane. Further: in other assays of this panel Not Active means under 50% inhibition at 10 µM.
Data set [6] has as its target Melanocortin receptor 5 (Homo sapiens, UniProt P33032). It counts as cell membranes, HEK293, Membrane. As to conditions: hek293. Further: in other assays of this panel Not Active means under 50% inhibition at 10 µM.
The target of data set [7] is T1, Cytochrome P450 2A6 (Homo sapiens, UniProt P11509). Further: in other assays of this panel Not Active means under 50% inhibition at 10 µM.
T1 sequence (P11509 whole entry): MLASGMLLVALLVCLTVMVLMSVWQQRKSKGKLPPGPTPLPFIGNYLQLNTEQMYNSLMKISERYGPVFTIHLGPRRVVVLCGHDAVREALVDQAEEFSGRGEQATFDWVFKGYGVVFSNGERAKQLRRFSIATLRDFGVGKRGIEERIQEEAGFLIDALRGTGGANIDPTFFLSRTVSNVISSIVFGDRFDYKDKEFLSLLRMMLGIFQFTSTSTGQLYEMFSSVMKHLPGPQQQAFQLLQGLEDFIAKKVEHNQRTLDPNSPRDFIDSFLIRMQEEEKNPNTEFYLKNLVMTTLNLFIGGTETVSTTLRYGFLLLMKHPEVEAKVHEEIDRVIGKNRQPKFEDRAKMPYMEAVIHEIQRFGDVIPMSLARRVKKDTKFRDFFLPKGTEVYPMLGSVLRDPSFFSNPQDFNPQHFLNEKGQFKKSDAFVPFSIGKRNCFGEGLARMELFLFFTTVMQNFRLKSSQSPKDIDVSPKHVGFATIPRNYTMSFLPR
As to conditions: bti-tn-5b1-4.

Data set [8] deals with Vascular endothelial growth factor receptor 1 (Homo sapiens, UniProt P17948). It counts as cell-based. As to conditions: huvec.
Chain of Vascular endothelial growth factor receptor 1 (P17948 whole entry): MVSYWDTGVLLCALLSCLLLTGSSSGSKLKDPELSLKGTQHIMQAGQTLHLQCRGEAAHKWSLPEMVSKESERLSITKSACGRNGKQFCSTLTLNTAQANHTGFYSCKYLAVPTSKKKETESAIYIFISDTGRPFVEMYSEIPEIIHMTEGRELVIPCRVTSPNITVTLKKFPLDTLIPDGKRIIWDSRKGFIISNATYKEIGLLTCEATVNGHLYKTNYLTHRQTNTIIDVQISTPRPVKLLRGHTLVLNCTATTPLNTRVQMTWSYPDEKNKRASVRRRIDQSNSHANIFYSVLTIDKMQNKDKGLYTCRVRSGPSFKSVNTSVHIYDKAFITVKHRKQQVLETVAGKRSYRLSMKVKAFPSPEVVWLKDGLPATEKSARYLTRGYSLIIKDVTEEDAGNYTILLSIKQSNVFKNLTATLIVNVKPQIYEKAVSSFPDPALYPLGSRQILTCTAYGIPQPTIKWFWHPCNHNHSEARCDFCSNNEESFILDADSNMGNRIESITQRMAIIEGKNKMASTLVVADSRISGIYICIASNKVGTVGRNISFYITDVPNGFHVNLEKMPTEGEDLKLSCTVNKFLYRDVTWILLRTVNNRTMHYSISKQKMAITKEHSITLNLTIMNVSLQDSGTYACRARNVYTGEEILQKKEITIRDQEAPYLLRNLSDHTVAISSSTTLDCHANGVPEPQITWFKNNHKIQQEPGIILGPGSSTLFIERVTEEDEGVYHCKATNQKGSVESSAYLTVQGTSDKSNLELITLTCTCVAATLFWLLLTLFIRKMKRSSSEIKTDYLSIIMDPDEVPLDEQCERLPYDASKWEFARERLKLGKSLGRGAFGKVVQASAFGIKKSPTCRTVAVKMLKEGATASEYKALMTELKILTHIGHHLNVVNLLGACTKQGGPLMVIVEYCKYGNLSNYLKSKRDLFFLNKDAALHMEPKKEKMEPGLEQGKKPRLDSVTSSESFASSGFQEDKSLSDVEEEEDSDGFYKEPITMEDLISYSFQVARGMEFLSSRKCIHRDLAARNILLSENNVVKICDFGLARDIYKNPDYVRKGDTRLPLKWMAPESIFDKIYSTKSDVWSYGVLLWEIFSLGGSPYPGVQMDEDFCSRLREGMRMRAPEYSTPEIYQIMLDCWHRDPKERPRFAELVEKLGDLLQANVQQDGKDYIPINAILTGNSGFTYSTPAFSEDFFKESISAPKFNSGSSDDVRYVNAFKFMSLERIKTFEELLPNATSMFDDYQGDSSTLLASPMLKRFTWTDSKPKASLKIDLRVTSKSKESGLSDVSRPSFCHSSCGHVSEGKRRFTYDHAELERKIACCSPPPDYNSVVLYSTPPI

Chain of Mitogen-activated protein kinase 3 (P27361 whole entry): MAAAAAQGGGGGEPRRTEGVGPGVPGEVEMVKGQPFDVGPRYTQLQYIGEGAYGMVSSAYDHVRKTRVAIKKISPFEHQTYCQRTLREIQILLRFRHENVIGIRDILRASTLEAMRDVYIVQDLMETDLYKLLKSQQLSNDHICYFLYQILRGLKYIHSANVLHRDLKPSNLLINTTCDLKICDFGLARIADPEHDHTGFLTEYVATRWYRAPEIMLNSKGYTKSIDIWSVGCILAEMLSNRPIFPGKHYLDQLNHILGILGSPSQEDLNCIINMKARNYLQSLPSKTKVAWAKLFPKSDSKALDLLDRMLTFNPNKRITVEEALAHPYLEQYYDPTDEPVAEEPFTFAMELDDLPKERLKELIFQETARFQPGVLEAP
Chain of Insulin receptor (P15127 27-759 limits assumed): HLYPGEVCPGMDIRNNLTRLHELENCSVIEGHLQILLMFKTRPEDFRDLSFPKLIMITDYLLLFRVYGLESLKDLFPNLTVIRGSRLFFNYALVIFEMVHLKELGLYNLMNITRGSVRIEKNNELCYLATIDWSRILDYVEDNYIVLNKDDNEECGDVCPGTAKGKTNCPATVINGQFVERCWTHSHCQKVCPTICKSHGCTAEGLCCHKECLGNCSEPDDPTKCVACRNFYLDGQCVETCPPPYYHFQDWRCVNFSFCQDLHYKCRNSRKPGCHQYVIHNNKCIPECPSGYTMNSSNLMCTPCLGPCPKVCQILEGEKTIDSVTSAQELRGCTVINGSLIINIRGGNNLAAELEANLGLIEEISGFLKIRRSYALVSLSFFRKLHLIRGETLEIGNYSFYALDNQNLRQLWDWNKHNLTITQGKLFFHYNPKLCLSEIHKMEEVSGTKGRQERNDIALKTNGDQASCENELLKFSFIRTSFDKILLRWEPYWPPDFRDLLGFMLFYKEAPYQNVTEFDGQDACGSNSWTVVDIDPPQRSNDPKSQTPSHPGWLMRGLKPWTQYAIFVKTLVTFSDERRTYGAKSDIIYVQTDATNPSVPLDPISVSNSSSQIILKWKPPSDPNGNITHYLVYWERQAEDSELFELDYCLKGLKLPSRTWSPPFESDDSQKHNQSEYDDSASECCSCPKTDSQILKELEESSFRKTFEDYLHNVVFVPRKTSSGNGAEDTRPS
Chain of Insulin receptor (P15127 764-1383 limits assumed): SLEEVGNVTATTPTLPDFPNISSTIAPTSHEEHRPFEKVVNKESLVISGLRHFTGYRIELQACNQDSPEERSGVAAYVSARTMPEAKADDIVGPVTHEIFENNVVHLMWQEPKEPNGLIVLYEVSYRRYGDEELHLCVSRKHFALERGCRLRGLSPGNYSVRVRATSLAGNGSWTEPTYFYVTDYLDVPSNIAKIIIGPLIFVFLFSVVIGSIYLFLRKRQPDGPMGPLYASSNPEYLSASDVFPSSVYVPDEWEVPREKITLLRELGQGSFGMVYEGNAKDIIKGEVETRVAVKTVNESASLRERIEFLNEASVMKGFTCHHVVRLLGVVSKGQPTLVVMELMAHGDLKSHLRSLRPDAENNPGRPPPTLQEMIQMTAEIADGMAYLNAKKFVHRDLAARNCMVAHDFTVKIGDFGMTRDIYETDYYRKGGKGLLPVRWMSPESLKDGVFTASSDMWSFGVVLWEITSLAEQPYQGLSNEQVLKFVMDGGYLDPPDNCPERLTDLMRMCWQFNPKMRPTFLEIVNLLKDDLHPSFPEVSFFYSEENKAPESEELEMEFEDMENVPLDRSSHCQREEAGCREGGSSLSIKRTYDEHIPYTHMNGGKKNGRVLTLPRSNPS
Chain of D(3) dopamine receptor (P35462 whole entry): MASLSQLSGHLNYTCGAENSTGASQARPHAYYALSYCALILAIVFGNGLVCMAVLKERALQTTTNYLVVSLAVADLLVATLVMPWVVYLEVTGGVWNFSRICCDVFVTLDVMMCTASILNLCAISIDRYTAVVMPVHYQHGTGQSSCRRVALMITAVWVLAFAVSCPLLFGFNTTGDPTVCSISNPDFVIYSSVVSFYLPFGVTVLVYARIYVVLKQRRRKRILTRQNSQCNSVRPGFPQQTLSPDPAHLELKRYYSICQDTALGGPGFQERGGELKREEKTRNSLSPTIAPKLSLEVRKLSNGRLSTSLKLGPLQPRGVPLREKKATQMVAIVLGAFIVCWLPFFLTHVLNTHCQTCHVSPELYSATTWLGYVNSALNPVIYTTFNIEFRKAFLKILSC
Chain of Melanocortin receptor 5 (P33032 whole entry): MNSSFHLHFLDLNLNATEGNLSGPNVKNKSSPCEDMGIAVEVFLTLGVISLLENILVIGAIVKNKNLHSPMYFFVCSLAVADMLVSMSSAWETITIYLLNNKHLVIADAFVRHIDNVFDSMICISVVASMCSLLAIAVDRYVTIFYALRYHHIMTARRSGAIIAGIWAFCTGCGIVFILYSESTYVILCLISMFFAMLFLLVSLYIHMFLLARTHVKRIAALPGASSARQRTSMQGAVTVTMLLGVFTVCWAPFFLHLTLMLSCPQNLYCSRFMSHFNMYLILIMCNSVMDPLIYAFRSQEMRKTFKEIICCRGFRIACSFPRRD

In the case of `COCCc1ccc(OCC(O)CNC(C)C)cc1` (centres undefined) [METOPROLOL], the IC50 result in data set [1], in data set [2], in data set [3] (cho), in data set [4], in data set [5] and in data set [6] was “Not Active” each time. The IC50 entry in data set [7] and in data set [8] was “Not Active” in each case. Moreover, the Ki result in data set [2], in data set [4] and in data set [7] was “Not Active” each time.
`CC1CC(OC(=O)C(O)c2ccccc2)CC(C)(C)C1` (centres undefined) [CYCLANDELATE]: the IC50 entry in data set [1], in data set [2], in data set [3] (cho), in data set [4], in data set [5] and in data set [6] was “Not Active” each time. Further, the half-inhibitory concentration (IC50) entry in data set [7] and in data set [8] was “Not Active” throughout. Further, the inhibition constant Ki result in data set [2], in data set [4] and in data set [7] was “Not Active” each time.
Regarding `C1CCC(C(CC2CCCCN2)C2CCCCC2)CC1` (centres undefined) [PERHEXILINE], the IC50 entry in data set [1], in data set [2], in data set [3] (cho), in data set [4], in data set [5] and in data set [6] was “Not Active” throughout. Also, the IC50 result in data set [7] and in data set [8] was “Not Active” throughout. In addition, the inhibition constant (Ki) result in data set [2], in data set [4] and in data set [7] was “Not Active” each time.
Consider `CC(C)[C@H]1C(=O)N2CCC[C@H]2[C@]2(O)O[C@](NC(=O)[C@@H]3C=C4c5cccc6[nH]cc(c56)C[C@H]4N(C)C3)(C(C)C)C(=O)N12` [ERGOCORNINE], for which the IC50 (in general, the concentration that gives 50% inhibition) was “Not Active” in data set [1]; “Not Active” in data set [2]; 2.86 nM in data set [3] (read-out: IC50); “Not Active” in data set [4]; “Not Active” in data set [5]; “Not Active” in data set [6]. Moreover, the 50% inhibitory concentration (IC50) result in data set [7] and in data set [8] was “Not Active” in each case. In addition, the Ki (in general, a dissociation constant, usually derived from enzyme kinetics or from competition with a known ligand) is “Not Active” in data set [2], 0.971 nM in data set [3] (read-out: Ki), “Not Active” in data set [4] and “Not Active” in data set [7].
Consider `CC(C)[C@@]1(NC(=O)[C@@H]2C[C@@H]3c4cccc5[nH]cc(c45)C[C@H]3N(C)C2)O[C@@]2(O)[C@@H]3CCCN3C(=O)[C@H](Cc3ccccc3)N2C1=O.CS(=O)(=O)O` [DIHYDROERGOCRISTINE MESYLATE], for which the IC50 entry in data set [1] was “Not Active”; in data set [2], “Not Active”; in data set [3] (read-out: IC50), 2.29 nM; in data set [4], “Not Active”; in data set [5], “Not Active”; in data set [6], “Not Active”. Also, the half-maximal inhibitory concentration (IC50) result in data set [7] and in data set [8] was “Not Active” each time. Also, the Ki entry in data set [2] was “Not Active”; in data set [3] (read-out: Ki), 0.777 nM; in data set [4] it was “Not Active”; in data set [7] it was “Not Active”.
As to `C[C@]12CCC(=O)C=C1CC[C@@H]1[C@@H]2CC[C@@]2(C)[C@H]1CC[C@]2(C)O` [METHYLTESTOSTERONE], the 50% inhibitory concentration (IC50) entry in data set [1], in data set [2], in data set [3] (cho), in data set [4], in data set [5] and in data set [6] was “Not Active” throughout. Moreover, the concentration for half-maximal inhibition (IC50) result in data set [7] and in data set [8] was “Not Active” each time. Besides, the inhibition constant (Ki) result in data set [2], in data set [4] and in data set [7] was “Not Active” each time.
On to `Nc1nc2c(ncn2COCCO)c(=O)[nH]1` [ACYCLOVIR], for which the half-maximal inhibitory concentration (IC50) entry in data set [1], in data set [2], in data set [3] (cho), in data set [4], in data set [5] and in data set [6] was “Not Active” throughout. The IC50 result in data set [7] and in data set [8] was “Not Active” throughout. The Ki entry in data set [2], in data set [4] and in data set [7] was “Not Active” in each case.
In the case of `CC(C)CN(C[C@@H](O)[C@H](Cc1ccccc1)NC(=O)O[C@H]1CCOC1)S(=O)(=O)c1ccc(N)cc1`, the IC50 result in data set [1], in data set [2], in data set [3] (cho), in data set [4], in data set [5] and in data set [6] was “Not Active” each time. The IC50 entry in data set [7] and in data set [8] was “Not Active” throughout. Besides, the Ki entry in data set [2], in data set [4] and in data set [7] was “Not Active” throughout.
Consider `CN(C)CCCN1c2ccccc2Sc2ccccc21` [PROMAZINE], for which the IC50 entry is “Not Active” in data set [1]; “Not Active” in data set [2]; 205 nM in data set [3] (read-out: IC50); “Not Active” in data set [4]; “Not Active” in data set [5]; “Not Active” in data set [6]. Moreover, the half-maximal inhibitory concentration (IC50) result in data set [7] and in data set [8] was “Not Active” in each case. Besides, the inhibition constant Ki result is “Not Active” in data set [2], 69 nM in data set [3] (read-out: Ki), “Not Active” in data set [4] and “Not Active” in data set [7].
`Cc1c(C)c2c(c(C)c1O)CC[C@@](C)(CCC[C@H](C)CCC[C@H](C)CCCC(C)C)O2` [ALPHA-TOCOPHEROL]: the 50% inhibitory concentration (IC50) result in data set [1], in data set [2], in data set [3] (cho), in data set [4], in data set [5] and in data set [6] was “Not Active” each time. Besides, the IC50 result in data set [7] and in data set [8] was “Not Active” throughout. The inhibition constant Ki result in data set [2], in data set [4] and in data set [7] was “Not Active” each time.
For `Cc1ccc(/N=C/N(C)/C=N/c2ccc(C)cc2C)c(C)c1` [AMITRAZ], the half-maximal inhibitory concentration (IC50) result in data set [1], in data set [2], in data set [3] (cho), in data set [4], in data set [5] and in data set [6] was “Not Active” in each case. For the same compound, the IC50 entry in data set [7] and in data set [8] was “Not Active” each time. For the same compound, the inhibition constant (Ki) entry in data set [2], in data set [4] and in data set [7] was “Not Active” in each case.
With `CNCCCN1c2ccccc2CCc2ccccc21` [DESIPRAMINE], the IC50 entry in data set [1], in data set [2], in data set [3] (cho), in data set [4], in data set [5] and in data set [6] was “Not Active” each time. The IC50 entry in data set [7] and in data set [8] was “Not Active” throughout. The Ki result in data set [2], in data set [4] and in data set [7] was “Not Active” throughout.
With CADMIUM ACETATE, the IC50 entry in data set [1], in data set [2], in data set [3] (cho), in data set [4], in data set [5] and in data set [6] was “Not Active” throughout. For the same compound, the half-maximal inhibitory concentration (IC50) result in data set [7] and in data set [8] was “Not Active” in each case. Also, the Ki entry in data set [1], in data set [2], in data set [3] (cho), in data set [4], in data set [5] and in data set [6] was “Not Active” each time. Moreover, the Ki result in data set [7] and in data set [8] was “Not Active” throughout.
As to `COc1cc2c3cc1Oc1cc(ccc1O)C[C@@H]1c4c(cc(OC)c(O)c4Oc4ccc(cc4)C[C@@H]3N(C)CC2)CC[N+]1(C)C.[Cl-]`, the IC50 result in data set [1], in data set [2], in data set [3] (cho), in data set [4], in data set [5] and in data set [6] was “Not Active” each time. Moreover, the IC50 result in data set [7] and in data set [8] was “Not Active” each time. The Ki entry in data set [2], in data set [4] and in data set [7] was “Not Active” in each case.
With `CN(Cc1ccc(C(C)(C)C)cc1)Cc1cccc2ccccc12` [BUTENAFINE], the IC50 result in data set [1], in data set [2], in data set [3] (cho), in data set [4], in data set [5] and in data set [6] was “Not Active” each time. Moreover, the IC50 result in data set [7] and in data set [8] was “Not Active” throughout. For the same compound, the Ki entry in data set [2], in data set [4] and in data set [7] was “Not Active” in each case.
For `C[C@H](CCC(=O)O)[C@H]1CC[C@H]2[C@@H]3[C@H](O)C[C@@H]4C[C@H](O)CC[C@]4(C)[C@H]3C[C@H](O)[C@]12C` [CHOLIC ACID], the concentration for half-maximal inhibition (IC50) entry in data set [1], in data set [2], in data set [3] (cho), in data set [4], in data set [5] and in data set [6] was “Not Active” throughout. For the same compound, the half-inhibitory concentration (IC50) result in data set [7] and in data set [8] was “Not Active” throughout. Moreover, the Ki entry in data set [2], in data set [4] and in data set [7] was “Not Active” each time.
